Measured values from patent publication US20090197880A1 (Genelabs Technologies, Inc., priority 2007, published 2009).

Experiment: HCV replicon assay (luciferase) in ET (Huh-lucubineo-ET) cell line
Format: cell-based
Conditions: Hepatitis C virus; tested at 5 μM; inhibition of replication relative to no compound control; ET replicon cells, luciferase 48-72 hours

Row | Structure (SMILES) | inhibition at 5 µM [%]
1 | CC(C)Oc1ccc(-c2cc(Cn3cc4nc(-c5cccc(F)c5F)nc-4cn3)on2)cc1 [Compound 102, 2-(2,3-Difluoro-phenyl)-5-[3-(4-isopropoxy-phenyl)-isoxazol-5-ylmethyl]-5H-imidazo[4,5-d]pyridazine] | 99.8
2 | Fc1ccccc1-c1nc2cnn(Cc3cc(-c4ccc(Cl)cc4)no3)cc-2n1 [Compound 116, 5-[3-(4-Chloro-phenyl)-isoxazol-5-ylmethyl]-2-(2-fluoro-phenyl)-5H-imidazo[4,5-d]pyridazine] | 92.1
3 | Fc1cccc(-c2nc3cnn(Cc4cc(-c5ccc(C(F)(F)F)cc5C(F)(F)F)no4)cc-3n2)c1F [Compound 103, 5-[3-(2,4-Bis-trifluoromethyl-phenyl)-isoxazol-5-ylmethyl]-2-(2,3-difluoro-phenyl)-5H-imidazo[4,5-d]pyridazine] | 100

Same assay, conditions: Hepatitis C virus; tested at 10 μM; inhibition of replication relative to no compound control; ET replicon cells, luciferase 48-72 hours; read-out: % inhition at 10 μM

Row | Structure (SMILES) | inhibition at 10 µM [%]
4 | Fc1cccc(-c2nc3cnn(Cc4cc(-c5ccc6c(c5)OC(F)(F)O6)no4)cc-3n2)c1F [Compound 167, 5-[3-(2,2-Difluoro-benzo[1,3]dioxol-5-yl)-isoxazol-5-ylmethyl]-2-(2,3-difluoro-phenyl)-5H-imidazo[4,5-d]pyridazine] | 93.1
5 | CCCOc1ccc(-c2cc(Cn3cc4nc(-c5ccc(F)cc5)nc-4cn3)on2)cc1 [Compound 145, 2-(4-Fluoro-phenyl)-5-[3-(4-propoxy-phenyl)-isoxazol-5-ylmethyl]-5H-imidazo[4,5-d]pyridazine] | 85.6
6 | CC(C)Oc1ccc(-c2cc(Cn3cc4nc(-c5cccc(F)c5F)nc-4cn3)on2)cc1 [Compound 102, 2-(2,3-Difluoro-phenyl)-5-[3-(4-isopropoxy-phenyl)-isoxazol-5-ylmethyl]-5H-imidazo[4,5-d]pyridazine] | 99.7
7 | Cc1ccc(-c2cc(Cn3cc4nc(-c5cccc(F)c5F)nc-4cn3)no2)nn1 [Compound 318, 2-(2,3-Difluoro-phenyl)-5-[5-(6-methyl-pyridazin-3-yl)-isoxazol-3-ylmethyl]-5H-imidazo[4,5-d]pyridazine] | 50
8 | CC(C)(C)C#Cc1ccc(-c2cc(Cn3cc4nc(-c5cccc(F)c5F)nc-4cn3)on2)cc1 [Compound 333, 2-(2,3-Difluoro-phenyl)-5-{3-[4-(3,3-dimethyl-but-1-ynyl)-phenyl]-isoxazol-5-ylmethyl}-5H-imidazo[4,5-d]pyridazine] | 86.4
9 | Fc1cccc(-c2nc3cnn(Cc4onc(-c5ccc(C(F)(F)F)cc5C(F)(F)F)c4Br)cc-3n2)c1F [Compound 292, 5-[3-(2,4-Bis-trifluoromethyl-phenyl)-4-bromo-isoxazol-5-ylmethyl]-2-(2,3-difluoro-phenyl)-5H-imidazo[4,5-d]pyridazine] | 64.1
10 | Fc1cccc(-c2nc3cnn(Cc4cc(-c5ccc(OCCCN6CCOCC6)cc5)no4)cc-3n2)c1F [Compound 273, 2-(2,3-Difluoro-phenyl)-5-{3-[4-(3-morpholin-4-yl-propoxy)-phenyl]-isoxazol-5-ylmethyl}-5H-imidazo[4,5-d]pyridazine] | 94
11 | CN(C)CCOc1ccc(-c2cc(Cn3cc4nc(-c5cccc(F)c5F)nc-4cn3)on2)cc1 [Compound 161, [2-(4-{5-[2-(2,3-Difluoro-phenyl)-imidazo[4,5-d]pyridazin-5-ylmethyl]-isoxazol-3-yl}-phenoxy)-ethyl]-dimethyl-amine] | 54.6
12 | Fc1cccc(-c2nc3cnn(Cc4cc(-c5ccc(Br)cc5)no4)cc-3n2)c1F [Compound 200, 5-[3-(4-bromo-phenyl)-isoxazol-5-ylmethyl]-2-(2,3-difluoro-phenyl)-5H-imidazo[4,5-d]pyridazine] | 99.4
13 | Fc1cccc(-c2nc3cnn(Cc4cc(-c5ccc(OCC6CCOCC6)cc5C(F)(F)F)no4)cc-3n2)c1F [Compound 319, 2-(2,3-Difluoro-phenyl)-5-{3-[4-(tetrahydro-pyran-4-ylmethoxy)-2-trifluoromethyl-phenyl]-isoxazol-5-ylmethyl}-5H-imidazo[4,5-d]pyridazine] | 100
14 | C#CCOc1ccc(-c2cc(Cn3cc4nc(-c5cccc(F)c5F)nc-4cn3)on2)cc1 [Compound 327] | 99.7
15 | Fc1cccc(-c2nc3cnn(Cc4cc(-c5ccc(C(F)(F)F)cc5)no4)cc-3n2)c1F [Compound 202, 2-(2,3-Difluoro-phenyl)-5-[3-(4-trifluoromethyl-phenyl)-isoxazol-5-ylmethyl]-5H-imidazo[4,5-d]pyridazine] | 99.2
16 | Fc1cccc(-c2nc3cnn(Cc4cc(-c5ccccc5)no4)cc-3n2)c1F [Compound 337, 2-(2,3-Difluoro-phenyl)-5-(3-phenyl-isoxazol-5-ylmethyl)-5H-imidazo[4,5-d]pyridazine] | 68.5
17 | Fc1cccc(-c2nc3cnn(Cc4cc(-c5ccc(-c6nnn[nH]6)cc5)no4)cc-3n2)c1F [Compound 328, 2-(2,3-Difluoro-phenyl)-5-{3-[4-(1H-tetrazol-5-yl)-phenyl]-isoxazol-5-ylmethyl}-5H-imidazo[4,5-d]pyridazine] | 55.5
18 | CCCOc1ccc(-c2cc(Cn3cc4nc(-c5cccc(F)c5F)nc-4cn3)on2)c(F)c1 [Compound 296, 2-(2,3-Difluoro-phenyl)-5-[3-(2-fluoro-4-propoxy-phenyl)-isoxazol-5-ylmethyl]-5H-imidazo[4,5-d]pyridazine] | 99.5
19 | Fc1cccc(-c2nc3cnn(Cc4cc(-c5cc(C(F)(F)F)cc(C(F)(F)F)c5)no4)cc-3n2)c1F [Compound 164, 5-[3-(3,5-Bis-trifluoromethyl-phenyl)-isoxazol-5-ylmethyl]-2-(2,3-difluoro-phenyl)-5H-imidazo[4,5-d]pyridazine] | 90.1
20 | Fc1cccc(-c2nc3cnn(Cc4cc(-c5ccc(OCC6CCOC6)cc5C(F)(F)F)no4)cc-3n2)c1F (stereo not drawn) [Compound 329, 2-(2,3-Difluoro-phenyl)-5-{3-[4-(tetrahydro-furan-3-ylmethoxy)-2-trifluoromethyl-phenyl]-isoxazol-5-ylmethyl}-5H-imidazo[4,5-d]pyridazine] | 99.5

Row | Structure (SMILES) | inhibition at 10 µM [%]
21 | Fc1cccc(-c2nc3cnn(Cc4cc(-c5ccc(C(F)F)cc5)no4)cc-3n2)c1F [Compound 336, 5-[3-(4-Difluoromethyl-phenyl)-isoxazol-5-ylmethyl]-2-(2,3-difluoro-phenyl)-5H-imidazo[4,5-d]pyridazine] | 99.7
22 | Fc1cccc(-c2nc3ccn(Cc4cc(-c5ccc(C(F)(F)F)cc5)no4)nc-3n2)c1F [Compound 246, 6-(2,3-Difluoro-phenyl)-2-[3-(4-trifluoromethyl-phenyl)-isoxazol-5-ylmethyl]-2H-imidazo[4,5-c]pyridazine] | 62.1
23 | Fc1cccc(-c2nc3ccn(Cc4cc(-c5ccc(C(F)(F)F)cc5C(F)(F)F)no4)nc-3n2)c1F [Compound 245, 2-[3-(2,4-Bis-trifluoromethyl-phenyl)-isoxazol-5-ylmethyl]-6-(2,3-difluoro-phenyl)-2H-imidazo[4,5-c]pyridazine] | 72.8
24 | FC(F)(F)c1ccc(-c2cc(Cn3cc4nc(-c5ccccn5)nc-4cn3)on2)c(C(F)(F)F)c1 [Compound 231, 5-[3-(2,4-Bis-trifluoromethyl-phenyl)-isoxazol-5-ylmethyl]-2-pyridin-2-yl-5H-imidazo[4,5-d]pyridazine] | 42
25 | FC(F)(F)c1ccc(-c2cc(Cn3cc4nc(-c5ccco5)nc-4cn3)on2)c(C(F)(F)F)c1 [Compound 142, 5-[3-(2,4-Bis-trifluoromethyl-phenyl)-isoxazol-5-ylmethyl]-2-furan-2-yl-5H-imidazo[4,5-d]pyridazine] | 66.3
26 | Fc1ccccc1-c1nc2cnn(Cc3cc(-c4ccc(Cl)cc4)no3)cc-2n1 [Compound 116, 5-[3-(4-Chloro-phenyl)-isoxazol-5-ylmethyl]-2-(2-fluoro-phenyl)-5H-imidazo[4,5-d]pyridazine] | 92.8
27 | CCCOc1ccc(-c2cc(Cn3cc4nc(-c5cccc(F)c5F)nc-4cn3)no2)cc1 [Compound 243, 2-(2,3-Difluoro-phenyl)-5-[5-(4-propoxy-phenyl)-isoxazol-3-ylmethyl]-5H-imidazo[4,5-d]pyridazine] | 99.4
28 | Fc1cccc(F)c1-c1nc2cnn(Cc3cc(-c4ccc(C(F)(F)F)cc4C(F)(F)F)no3)cc-2n1 [Compound 140, 5-[3-(2,4-Bis-trifluoromethyl-phenyl)-isoxazol-5-ylmethyl]-2-(2,6-difluoro-phenyl)-5H-imidazo[4,5-d]pyridazine] | 82.7
29 | CC(F)(F)c1ccc(-c2cc(Cn3cc4nc(-c5cccc(F)c5F)nc-4cn3)on2)cc1 [Compound 314, 5-{3-[4-(1,1-Difluoro-ethyl)-phenyl]-isoxazol-5-ylmethyl}-2-(2,3-difluoro-phenyl)-5H-imidazo[4,5-d]pyridazine] | 99.8
30 | CN(C)CCCOc1ccc(-c2cc(Cn3cc4nc(-c5cccc(F)c5F)nc-4cn3)on2)cc1 [Compound 216, [3-(4-{5-[2-(2,3-Difluoro-phenyl)-imidazo[4,5-d]pyridazin-5-ylmethyl]-isoxazol-3-yl}-phenoxy)-propyl]-dimethyl-amine] | 79.1
31 | COc1ccc(-c2cc(Cn3cc4nc(-c5cccc(F)c5F)nc-4cn3)on2)c(C(=O)O)c1 [Compound 266, 2-{5-[2-(2,3-Difluoro-phenyl)-imidazo[4,5-d]pyridazin-5-ylmethyl]-isoxazol-3-yl}-5-methoxy-benzoic Acid] | 10
32 | Fc1ccccc1-c1nc2cnn(Cc3nnc(-c4ccc(Cl)cc4)o3)cc-2n1 [Compound 291, 5-[5-(4-Chloro-phenyl)-[1,3,4]oxadiazol-2-ylmethyl]-2-(2-fluoro-phenyl)-5H-imidazo[4,5-d]pyridazine] | 22.5
33 | CN(C)c1ccc(-c2cc(Cn3cc4nc(-c5cccc(F)c5F)nc-4cn3)on2)cc1 [Compound 208, (4-{5-[2-(2,3-Difluoro-phenyl)-imidazo[4,5-d]pyridazin-5-ylmethyl]-isoxazol-3-yl}-phenyl)-dimethyl-amine] | 69.7
34 | Fc1cc(C(F)(F)F)ccc1-c1cc(Cn2cc3nc(-c4ccccc4F)nc-3cn2)on1 [Compound 279, 2-(2-Fluoro-phenyl)-5-[3-(2-fluoro-4-trifluoromethyl-phenyl)-isoxazol-5-ylmethyl]-5H-imidazo[4,5-d]pyridazine] | 98.9
35 | COC(=O)CCCOc1ccc(-c2cc(Cn3cc4nc(-c5cccc(F)c5F)nc-4cn3)on2)cc1 [Compound 192, 4-(4-{5-[2-(2,3-difluoro-phenyl)-imidazo[4,5-d]pyridazin-5-ylmethyl]-isoxazol-3-yl}-phenoxy)-butyric acid methyl ester] | 54.1
36 | Fc1cccc(-c2nc3cnn(Cc4cc(-c5ccc(C(F)(F)F)cc5C(F)(F)F)no4)cc-3n2)c1F [Compound 103, 5-[3-(2,4-Bis-trifluoromethyl-phenyl)-isoxazol-5-ylmethyl]-2-(2,3-difluoro-phenyl)-5H-imidazo[4,5-d]pyridazine] | 100
